How the values were obtained:
[1] = tested on: Acvr1[R206H]COIN/+; Gt(ROSA26)SorCreERt2/+ mice; experiment: Example 2: ectopic bone formation in a mouse model of FOP after tamoxifen, in vivo μCT (ACVR1 kinase inhibitor); conditions: for mice showing ectopic bone formation / size of ectopic bone lesions: 3 mg/kg twice daily for 4 weeks; for mice showing ectopic bone formation: 4 weeks post initiation of tamoxifen, μCT; for size of ectopic bone lesions: versus vehicle control group
From the text: (§1) ACVR1 and/or ACVR2 antagonists and variants or fragments thereof can also be screened for activity in an in vivo assay. For example, ACVR1 or ACVR2 antagonists or variants thereof can be screened for their ability to treat FOP in a mouse model of FOP (e.g., ability to decrease ectopic bone formation). Transgenic knock-in mice have been developed that carry a conditional allele encoding Acvr1[R206H]. These Acvr1^[R206H]COIN/+ mice are described in U.S. Ser. No. 14/207,320 and PCT/US2014/026582, which are incorporated by reference herein in its entirety. This allele expresses the R206H variant only after activation by Cre recombinase. This allows Cre-dependent activation of Acvr1[R206H] expression at specific tissues and at specific time by using different types of Cre driver lines. In this manner the resulting mice also bypass the perinatal lethality that has been observed with a non-regulated knock-in allele of Acvr1[R206H]. Activation of Acvr1[R206H] expression in young or in adult mice results in ectopic bone formation. […] Tamoxifen activates expression of Cre which then acts upon the Acvr1^[R206H]COIN/+ to convert it to Acvr1^[R206H]/+, thereby converting the genotype of the mice to mirror the genotype of the FOP patients that are ACVR1[R206H]. The Acvr1^[R206H] allele expresses Acvr1[R206H], and that is adequate to drive the development of FOP in the Acvr1^[R206H]/+; Gt(ROSA26)Sor^CreERt2/+ mice. This bypasses the embryonic lethality experienced with conventional Acvr1^[R206H] knock-in mice, Acvr1^tm1Emsh (http://www.informatics.jax.org/allele/key/828153). After tamoxifen treatment, the ACVR1, ACVR2A and/or ACVR2B antagonists or a control can be administered to the Acvr1^[R206H]COIN/+; Gt(ROSA26)Sor^CreERt2/+ mice and the animals monitored for ectopic bone formation. See Chakkalakal S A, et al. (20120 An Acvr1 R206H knock-in mouse has fibrodysplasia ossificans progressiva. J Bone Miner Res. 27(8):1746-56. This assay is described in detail in the Examples below.
16 Acvr1^[R206H]COIN/+; Gt(ROSA26)Sor^CreERt2/+ mice were given tamoxifen at 1 mg/mouse dose i.p. for eight days. Eight mice were treated with 3 mg/kg of the ACVR1 kinase inhibitor LDN-212854 (Mohedas et al. (2013) ACS Chem. Biol. 8:1291-1302) twice daily for 4 weeks. Eight mice were treated with vehicle control twice daily for 4 weeks. Mice were monitored using in vivo μCT at baseline, 2 and 4 weeks post initiation of tamoxifen administration.

[2] = tested on: Acvr1[R206H]COIN/+; Gt(ROSA26)SorCreERt2/+ mice; experiment: Example 3: ectopic bone formation in a mouse model of FOP after tamoxifen, in vivo μCT (Activin A antibody, ACVR2a-Fc)
From the text: ACVR1 and/or ACVR2 antagonists and variants or fragments thereof can also be screened for activity in an in vivo assay. For example, ACVR1 or ACVR2 antagonists or variants thereof can be screened for their ability to treat FOP in a mouse model of FOP (e.g., ability to decrease ectopic bone formation). Transgenic knock-in mice have been developed that carry a conditional allele encoding Acvr1[R206H]. These Acvr1^[R206H]COIN/+ mice are described in U.S. Ser. No. 14/207,320 and PCT/US2014/026582, which are incorporated by reference herein in its entirety. This allele expresses the R206H variant only after activation by Cre recombinase. This allows Cre-dependent activation of Acvr1[R206H] expression at specific tissues and at specific time by using different types of Cre driver lines. […] After tamoxifen treatment, the ACVR1, ACVR2A and/or ACVR2B antagonists or a control can be administered to the Acvr1^[R206H]COIN/+; Gt(ROSA26)Sor^CreERt2/+ mice and the animals monitored for ectopic bone formation. […]
23 Acvr1^[R206H]COIN/+; Gt(ROSA26)^SorCreERt2/+ mice were treated with tamoxifen at 1 mg/mouse dose i.p. for eight days. […] Mice were monitored using in vivo micro computer tomography (μCT) at baseline, 2 and 3 weeks post initiation of tamoxifen administration. […]

[3] = target: T1, Activin A binding to ACVR2A or ACVR2B (Homo sapiens, UniProt P08476); conditions: as described for the antibody in US2015/0037339 or U.S. Pat. No. 8,309,082; cited from earlier work
T1 sequence (P08476 311-426): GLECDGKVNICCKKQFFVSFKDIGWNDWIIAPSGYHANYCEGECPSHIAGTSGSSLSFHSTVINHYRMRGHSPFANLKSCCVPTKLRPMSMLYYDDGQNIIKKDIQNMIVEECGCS

[4] = tested on: Acvr1[R206H]COIN/+; Gt(ROSA26)SorCreERt2/+ mice; experiment: Example 4: ectopic bone formation in a mouse model of FOP after tamoxifen, in vivo μCT (Activin A antibody, Acvr2a/Acvr2b antibody); conditions: for protection from / inhibition of ectopic bone formation after tamoxifen treatment: mouse, in vivo
From the text: as §1, with “See Chakkalakal S A, et al. (20120 An Acvr1 R206H knock-in mouse has fibrodysplasia ossificans progressiva. J Bone Miner Res. 27(8):1746-56. This assay is described in detail in the Examples below.” left out
26 Acvr1[R206H]COIN/+; Gt(ROSA26)SorCreERt2/+ mice were given with tamoxifen at a 40 mg/kg dose i.p. for eight days. […] Mice were monitored using in vivo μCT at baseline, 2, 3 and 4 weeks post initiation of tamoxifen administration. […]

[5] = tested on: Acvr1[R206H]COIN/+; Gt(ROSA26)SorCreERt2/+ mice; experiment: Example 5: ectopic bone formation in a mouse model of FOP after tamoxifen, in vivo μCT, dose comparison of Activin A antibody; conditions: for mice that developed ectopic bone: nine mice, after 4 weeks, μCT; for average total volume of ectopic bone: at 6.5 weeks, calculated from μCT images
From the text: as §1
35 Acvr1[R206H]COIN/+; Gt(ROSA26)SorCreERt2/+ mice were given with tamoxifen at 40 mg/kg i.p. for eight days. Eight mice were treated with 25 mg/kg isotype control antibody (REGN1945), nine mice were treated with 25 mg/kg of Activin A antibody (H4H10446P) (REGN2477), nine mice were treated with 10 mg/kg of Activin A antibody (REGN2477) and nine mice were treated with 1 mg/kg of Activin A antibody (REGN2477) weekly for 6 weeks. Mice were monitored using in vivo μCT at baseline, 2, 3, 4 and 6.5 weeks post initiation of tamoxifen administration. The volume of ectopic bone in each mouse was calculated from μCT images. […] At 6.5 weeks the average total volume of ectopic bone in the isotype treated group was 65.4 mm3 compared to 1.87 mm^3 in the 25 mg/kg, 0.3 mm^3 in the 10 mg/kg and 7.3 mm^3 in the 1 mg/kg Activin antibody treated groups.

[6] = tested on: Activin A mediated signaling through ACVR2A and/or ACVR2B; conditions: as described for the antibody in US2015/0037339 or U.S. Pat. No. 8,309,082; cited from earlier work

Molecule	mice showing ectopic bone formation [1]	mice showing ectopic bone formation ([1]; listed as LDN212854)	size of ectopic bone lesions [1]	size of ectopic bone lesions ([1]; listed as LDN212854)	protection from ectopic bone formation after tamoxifen treatment ([1]; LDN-212854 treatment)	mice showing development of ectopic bone ([2]; 25 mg/kg twice weekly, eight mice, 3 weeks post initiation of tamoxifen, μCT)	inhibition of formation of ectopic bone nodules (FIG. 3) ([2]; compared with isotype control antibody and ACVR2A-Fc)	inhibition of Activin A binding to ACVR2A and/or ACVR2B [3]	mice that developed ectopic bone ([4]; 10 mg/kg twice weekly, nine mice per group, 4 weeks post initiation of tamoxifen, μCT)	protection from / inhibition of ectopic bone formation after tamoxifen treatment ([4]; listed as Activin A)	protection from / inhibition of ectopic bone formation after tamoxifen treatment ([4]; listed as antibody against Activin A)	mice that developed ectopic bone ([5]; 1 mg/kg weekly) [mice]	average total volume of ectopic bone ([5]; 1 mg/kg weekly) [mm^3]	mice that developed ectopic bone ([5]; 10 mg/kg weekly) [mice]	average total volume of ectopic bone ([5]; 10 mg/kg weekly) [mm^3]	mice that developed ectopic bone ([5]; 25 mg/kg weekly) [mice]	average total volume of ectopic bone ([5]; 25 mg/kg weekly) [mm^3]	effectiveness of varying doses against ectopic bone formation (FIG. 5) ([5]; doses 1, 10 and 25 mg/kg versus isotype control antibody)	protection from ectopic bone formation after tamoxifen treatment ([5]; mouse, in vivo)	inhibition of Activin A signal transduction through ACVR2A and/or ACVR2B [6]
c1cc(-c2cnn3cc(-c4ccc(N5CCNCC5)cc4)cnc23)c2cccnc2c1 [LDN-212854]	3 out of 8	No ectopic bone nodules could be detected in mice numbered 10, 11, 14, 15 or 16	small compared to the vehicle control group	Small ectopic bone nodules have formed in mice numbered 9, 12 and 13	protected from ectopic bone formation															
H4H10446P: Antibody against Activin A designated H4H10446P in US2015037339; heavy and light chain variable regions present SEQ ID NOs:1 and 5						none	inhibited formation of ectopic bone nodules most effectively	does not inhibit strongly, if at all	one	protected from ectopic bone formation	inhibited formation of ectopic bone nodules	2	7.3	2	0.3	2	1.87	Dosages between 1 mg/kg and 25 mg/kg were shown to be effective with 10 mg/kg being the most effective dose tested	protected from ectopic bone formation	inhibits Activin A mediated signaling through ACVR2A and/or ACVR2B

Reference: US11407822B2, “Treatment of fibrodysplasia ossificans progressiva” (REGENERON PHARMACEUTICALS, INC., priority 2014, dated 2022)
